Experimental findings from US7223888B2, “Mu opioid receptor ligands: methods of use and synthesis” (President and Fellows of Harvard College, priority 2002, dated 2007) are described below.

Test [1] concerns the target T1, hMOR-1 (Homo sapiens, UniProt P35372).
T1 construct: purchased Amersham Biosciences; host or cells: stably transfected CHO cells (membrane preparation)
The test can be described thus: Opioid receptor competitive binding assay, MOR (3H-DAMGO). To be noted: Ki MOR, 3H-DAMGO, hMOR-1 stably transfected into CHO cells. The protocol: (§1) For selected compounds, Ki for MOR, DOR, and KOR were determined according to the following procedure: Recombinant hMOR-1 membrane preps from stably transfected CHO cells and recombinant hDOR-1 membrane preps from stably transfected HEK-293 cells were purchased from Amersham Biosciences. Guinea pig cerebellum preparations were used for KOR assays.
(§2) Each microassay from an assay plate was filtered through an individual well of a Packard GF/B 96-well filter plate (glass fiber filter) to collect the membranes. Each well was washed twice with 200 μL of ice cold wash buffer (50 mM Tris, pH 7.4). The filter plate was allowed to dry overnight, the back was sealed, and Packard Bioscience Microscint PS scintillation fluid (75 μL) was added to each well, which was then counted for ^3H for 2 minutes using a Packard Bioscience TopCount scintillation counter plate reader.
(§3) Each compound was assayed at 8 concentrations, using half-log serial dilutions. Each concentration was tested in triplicate, and the ^3H cpm were averaged.
(§4) This concentration was determined experimentally by scintillation counting an aliquot of the radioligand stock solution used in the assay.
(§5) Kd=the binding constant for the radioligand.
(§6) This triplicate experiment was repeated three times for the MOR and twice for the DOR and the KOR.

Test [2] has as its target T2, hDOR-1 (Homo sapiens, UniProt P41143).
T2 construct: purchased Amersham Biosciences; host or cells: stably transfected HEK-293 cells (membrane preparation)
The experiment in a line: Opioid receptor competitive binding assay, DOR. As to the method:
as §1, §2, §3, §4, §5, §6

The target in test [3] is T3, KOR (Cavia porcellus, UniProt P41144).
T3 construct: from tissue; host or cells: guinea pig cerebellum preparation
The experiment in a line: Opioid receptor competitive binding assay, KOR (3H-U-69,593). Conditions: for Ki KOR/Ki MOR: selectivity for MOR versus KOR. Set-up: species or system guinea pig. The protocol:
as §1, §2, §3, §6

Test [4] addresses T1, hMOR-1. The test can be described thus: MOR GTP-γ-S assay (MOR activation). It counts as biochemical. Conditions: CHO membranes with hMOR-1; for % GTP-γ-S bound: Table 16, compound 10 μM, percentage of DAMGO induced GTP-γ-35S specific binding; for % GTP-γ-35S bound: Table 15, percentage of DAMGO induced GTP-g-35S specific binding. The protocol:
MOR GTP-γ-S assay was run in the same 200 μL, 96 well format as the binding assay. Each microassay contained experimental compound, 0.04 nM GTP-γ-^35S, 9 μM GDP, and about 0.02 nM MOR (from stably transfected CHO cells), in assay buffer (50 mM Tris-HCl, 3 mM MgCl2, 0.2 mM EGTA, 100 mM NaCl, pH 7.4). The assays were incubated for two to three hours at room temperature, then filtered onto a filter plate. The plate was dried; scintillation fluid was added, and the wells were counted for ^35S. Blank assays were run to determine non-specific binding. […] The results were averaged; the non-specific counts were subtracted, and the resulting value was expressed as a percent of the value obtained for DAMGO. The error reported is two standard deviations from the mean of the quadruplicate experiment. The values were compared using one way Anova with Tukey's post-hoc analysis.

Where [5] appears, read: Table 4, errors 95% confidence interval.
The mark [6] stands for this setting: Ki DOR, Table 7, 3H-diprenorphine, hDOR-1 stably transfected into HEK-293 cells, errors two standard deviations.
[7] abbreviates: Table 13, selectivity for MOR versus DOR (footnote: 3H-DPDPE, hDOR-1).
Where [8] appears, read: Ki KOR, Table 10, 3H-U-69,593, guinea pig cerebellum preparation, errors two standard deviations.
Setting [9] is: Table 3, errors 95% confidence interval.
The mark [10] stands for this setting: Ki DOR, Table 6, footnote:, hDOR-1 stably transfected into HEK-293 cells, errors two standard deviations.
Where [11] appears, read: Table 12, selectivity for MOR versus DOR (3H-DPDPE, hDOR-1).
[12] abbreviates: Ki KOR, Table 9, 3H-U-69,593, guinea pig cerebellum preps, errors two standard deviations.

Read-outs that look alike come from different tables or passages of the source.

With `NC(=O)C(Cc1ccccc1)NC(=O)C(Cc1ccccc1)C(O)/C=C/C(O)CC(N)Cc1ccc(O)cc1` (single isomer, unassigned) [(R, R, S, S)-43, 7-(1-Carbamoyl-2-phenyl-ethylcarbamoyl)-3,6-dihydroxy-1-(4-hydroxy-benzyl)-8-phenyl-oct-4-enyl-ammonium], the Ki (commonly the dissociation constant of the complex between target and ligand, obtained from inhibition or displacement) was 38 ± 13 nM in test [1] (Table 5), 1200 ± 100 nM in test [2] (read-out: Ki DOR) and 880 ± 550 nM in test [3] (read-out: Ki KOR). The “% GTP-γ-S bound” value in test [4] is recorded as 30 ± 6%.
On to `NC(=O)C(Cc1ccccc1)NC(=O)C(Cc1ccccc1)C(O)/C=C/C(O)CC(N)Cc1ccc(O)cc1` (single isomer, unassigned) [(R, S, R, R)-43, 7-(1-Carbamoyl-2-phenyl-ethylcarbamoyl)-3,6-dihydroxy-1-(4-hydroxy-benzyl)-8-phenyl-oct-4-enyl-ammonium], for which the Ki turned out to be 20 ± 3 nM in test [1] (Table 5), 2500 ± 300 nM in test [2] (read-out: Ki DOR) and 270 ± 30 nM in test [3] (read-out: Ki KOR). In addition, in test [4], the “% GTP-γ-S bound” value stood at 68 ± 10%.
As to `NC(=O)C(Cc1ccccc1)NC(=O)C(Cc1ccccc1)C(O)/C=C/C(O)CC(N)Cc1ccc(O)cc1` (single isomer, unassigned) [(S, R, R, S)-43, 7-(1-Carbamoyl-2-phenyl-ethylcarbamoyl)-3,6-dihydroxy-1-(4-hydroxy-benzyl)-8-phenyl-oct-4-enyl-ammonium], the results for the Ki in test [1] (Table 5), in test [2] (read-out: Ki DOR) and in test [3] (read-out: Ki KOR) were 28 ± 6 nM, 2500 ± 3000 nM and 1200 ± 600 nM, respectively. For the same molecule, the “% GTP-γ-S bound” value in test [4] came out at 48 ± 8%.
In the case of `NC(=O)C(Cc1ccccc1)NC(=O)C(Cc1ccccc1)C(O)/C=C/C(O)CC(N)Cc1ccc(O)cc1` (single isomer, unassigned) [(S, R, S, R)-43, 7-(1-Carbamoyl-2-phenyl-ethylcarbamoyl)-3,6-dihydroxy-1-(4-hydroxy-benzyl)-8-phenyl-oct-4-enyl-ammonium], the Ki in test [1] (Table 5) amounted to 32 ± 6 nM; in test [2] (read-out: Ki DOR), 740 ± 40 nM; in test [3] (read-out: Ki KOR) it was 290 ± 100 nM. The “% GTP-γ-S bound” value in test [4] is 37 ± 7%.
As for `NC(=O)C(Cc1ccccc1)NC(=O)C(Cc1ccccc1)C(O)/C=C/C(O)CC(N)Cc1ccc(O)cc1` (single isomer, unassigned) [(S, R, S, S)-43, 7-(1-Carbamoyl-2-phenyl-ethylcarbamoyl)-3,6-dihydroxy-1-(4-hydroxy-benzyl)-8-phenyl-oct-4-enyl-ammonium], the Ki in test [1] (Table 5) was determined as 42 ± 5 nM; in test [2] (read-out: Ki DOR), 2500 ± 300 nM; in test [3] (read-out: Ki KOR), 3100 ± 2600 nM. Besides, the “% GTP-γ-S bound” value in test [4] came to 57 ± 12%.
Take `NC(=O)C(Cc1ccccc1)NC(=O)C(Cc1ccccc1)C(O)/C=C/C(O)CC(N)Cc1ccc(O)cc1` (single isomer, unassigned) [(S, S, R, S)-43, 7-(1-Carbamoyl-2-phenyl-ethylcarbamoyl)-3,6-dihydroxy-1-(4-hydroxy-benzyl)-8-phenyl-oct-4-enyl-ammonium]: the Ki in test [1] (Table 5) came out at 14 ± 1 nM; in test [2] (read-out: Ki DOR), 1200 ± 100 nM; in test [3] (read-out: Ki KOR), 450 ± 60 nM. Also, the “% GTP-γ-S bound” value in test [4] was 25 ± 5%.
`Cc1cc(O)cc(C)c1CC(N)C(O)C/C=C/C(O)C(Cc1ccccc1)C(=O)NC(Cc1ccccc1)C(N)=O` (single isomer, unassigned) [(S,R,R,R)-25, 7-(1-Carbamoyl-2-phenyl-ethylcarbamoyl)-2,6-dihydroxy-1-(4-hydroxy-2,6-dimethyl-benzyl)-8-phenyl-oct-4-enyl-ammonium]: the Ki was found to be 1.6 ± 0.9 nM in test [1] (setting [5]), 85 ± 13 nM in test [2] (setting [6]) and 25 ± 14 nM in test [3] (setting [8]). In addition, the “Ki DOR/Ki MOR” value in test [2] (setting [7]) is on record as 53. Besides, in test [3] (Table 13), the “Ki KOR/Ki MOR” value is on record as 16. Further, the “% GTP-γ-35S bound” value in test [4] (compound 10 mM (footnote)) came out at 43 ± 9%.
Turning to `Cc1cc(O)cc(C)c1CC(N)C(O)C/C=C/C(O)C(Cc1ccccc1)C(=O)NCCc1ccccc1` (single isomer, unassigned) [(S,R,R,R)-26, 2,6-Dihydroxy-1-(4-hydroxy-2,6-dimethyl-benzyl)-7-phenethylcarbamoyl-8-phenyl-oct-4-enyl-ammonium], the Ki is 0.72 ± 0.26 nM in test [1] (setting [5]), 66 ± 1 nM in test [2] (setting [6]) and 69 ± 20 nM in test [3] (setting [8]). For the same molecule, the “Ki DOR/Ki MOR” value in test [2] (setting [7]) is on record as 91. The “Ki KOR/Ki MOR” value in test [3] (Table 13) was 96. The “% GTP-γ-35S bound” value in test [4] (compound 10 mM (footnote)) came to 27 ± 9%.
Regarding `NC(=O)C(Cc1ccccc1)NC(=O)C(Cc1ccccc1)C(O)/C=C\CC(O)C(N)Cc1ccc(O)cc1` (single isomer, unassigned) [(S,S,S,R)-9, (Z)-8-Amino-2-benzyl-3,7-dihydroxy-9-(4-hydroxy-phenyl)-non-4-enoic acid (1-carbamoyl-2-phenyl-ethyl)-amide], the Ki in test [1] (setting [9]) worked out at 370 ± 150 nM; in test [2] (setting [10]), 2200 ± 100 nM; in test [3] (setting [12]), 6100 ± 3000 nM. Further, in test [2] (setting [11]), the “Ki DOR/Ki MOR” value is on record as 6. Besides, the “Ki KOR/Ki MOR” value in test [3] (Table 12) was 16.
Consider `NC(Cc1ccc(O)cc1)C(O)C/C=C/C(O)C(Cc1ccccc1)C(=O)NCCc1ccccc1` (single isomer, unassigned) [(S,S,S,R)-10, (E)-8-Amino-2-benzyl-3,7-dihydroxy-9-(4-hydroxy-phenyl)-non-4-enoic acid phenethyl-amide], for which the Ki in test [1] (setting [9]) was determined as 21 ± 1 nM; in test [2] (setting [10]) it was 3600 ± 100 nM; in test [3] (setting [12]), 1800 ± 300 nM. The “Ki DOR/Ki MOR” value in test [2] (setting [11]) worked out at 170. The “Ki KOR/Ki MOR” value in test [3] (Table 12) was 86.
In the same order, the values of `NC(Cc1ccc(O)cc1)C(O)C/C=C/C(O)C(Cc1ccccc1)C(=O)NC(CO)Cc1ccccc1` (single isomer, unassigned) [(S,S,S,R)-11, (E)-8-Amino-2-benzyl-3,7-dihydroxy-9-(4-hydroxy-phenyl)-non-4-enoic acid (1-hydroxymethyl-2-phenyl-ethyl)-amide] are 10 ± 2 nM, 1100 ± 100 nM, 6000 ± 700 nM, 110 and 600.
With `C=CC(O)C(Cc1ccccc1)NC(=O)C(Cc1ccccc1)C(O)/C=C/CC(O)C(N)Cc1ccc(O)cc1` (single isomer, unassigned) [(S,S,S,R)-12, (E)-8-Amino-2-benzyl-3,7-dihydroxy-9-(4-hydroxy-phenyl)-non-4-enoic acid (1-benzyl-2-hydroxy-but-3-enyl)-amide], the Ki worked out at 20 ± 1 nM in test [1] (setting [9]), 680 ± 40 nM in test [2] (setting [10]) and 1050 ± 10 nM in test [3] (setting [12]). In test [2] (setting [11]), the “Ki DOR/Ki MOR” value is recorded as 34. Further, the “Ki KOR/Ki MOR” value in test [3] (Table 12) worked out at 53.
As to `NC(=O)C(Cc1ccccc1)OC(=O)C(Cc1ccccc1)C(O)/C=C/CC(O)C(N)Cc1ccc(O)cc1` [(S,S,S,R)-13, (E)-8-Amino-2-benzyl-3,7-dihydroxy-9-(4-hydroxy-phenyl)-non-4-enoic acid1-carbamoyl-2-phenyl-ethyl ester], the Ki in test [1] (setting [9]) is 37 ± 8 nM; in test [2] (read-out: Ki DOR), 910 ± 250 nM; in test [3] (read-out: Ki KOR), 6000 ± 2100 nM.
For the molecule `Cc1cc(O)cc(C)c1CC(N)C(O)C/C=C/C(O)C(Cc1ccccc1)C(=O)NC(CN)Cc1ccccc1` [(S,S,S,R)-28], the Ki in test [1] (setting [5]) amounted to 0.45 ± 0.05 nM; in test [2] (setting [6]) it was 21 ± 4 nM. Also, the “% GTP-γ-35S bound” value in test [4] (compound 10 mM (footnote)) is given as 47 ± 5%.
Turning to `NC(=O)[C@H](Cc1ccccc1)NC(=O)[C@H](Cc1ccccc1)NC(=O)[C@H]1CCCN1C(=O)[C@@H](N)Cc1ccc(O)cc1` [Compound 1, Endomorphin-2, reference compound], the Ki is 1.2 ± 0.1 nM in test [1] (setting [9]), 0.69 ± 0.18 nM in test [1] (setting [5]) and 1 ± 0.1 nM in test [1] (Table 5). In addition, the “% GTP-γ-35S bound” value in test [4] (compound 10 μM (footnote)) is listed as 100 ± 6%. Besides, the “% GTP-γ-S bound” value in test [4] stood at 100 ± 6%.
